Key:
[1] = Zeta potential (Malvern Zetasizer, suspension in acetonitrile); assay type: physicochemical; settings: for Zeta potential (sign): dilute suspension in acetonitrile; for Zeta potential (mV): microcrystals in non-aqueous medium, precipitation pH 5.59-7.02 as given per sample
From the text: The core microcrystal and protein coating that are characteristic of protein coated coated microcrystals arise from a single continuous self-assembly process. In order to assess whether electrostatic binding of the bioactive molecule to pre-formed microcrystals might be important in the mechanism of this process it was of interest to measure the surface potential of the microcrystals in a non-aqueous medium. The liquid layer surrounding a charged particle exists as two parts; an inner region (Stern layer) where the ions are strongly bound and an outer (diffuse) region where they are less firmly associated. Within the diffuse layer there is a notional boundary inside which the ions and particles form a stable entity. When a particle moves (e.g. due to gravity), ions within the boundary move too. […] The potential at this boundary (surface of hydrodynamic shear) is the zeta potential. The sign and magnitude of the zeta potential depends on the surface charge of the particle with for example a negative zeta potential indicating a particle with an overall negative charge. A Malvern Zetasizer that employs laser Doppler velocimetry was used to measure the sign and approximate magnitude of the Zeta potential of microcrystals produced by precipitation of various core materials at fixed pH. The measurements were made on pre-prepared microcrystals or protein coated microcrystals suspended as dilute suspension in acetonitrile. A polystyrene latex was used to calibrate the machine. […] If electrostatic binding is important to the mechanism of formation it would be expected that only biomolecules with an overall positive charge would be expected to form a coating on these negatively charged materials. The charge on a protein is a function of pH. It will be negative at pH values above the pI and positive at a pH below the pI.

[2] = Laser diffraction particle size analysis (Mastersizer 2000); assay type: physicochemical; settings: continuous flow precipitator, into isopropanol; coated samples 10% protein loading
Method: Laser diffraction particle size analysis was carried out on bioactive coated particles using a Mastersizer 2000. Briefly, enough PCMC was added to the sample holder of the Mastersizer 2000 containing 60 ml of 2-propanol to ensure a laser obscuration of between 10 and 20%. Measurements were then taken using a previously set up Standard Operating Procedure. d(0.1)(μm)=10% of the particles are below this particle size d(0.5)(μm)=50% of the particles are above and below this particle size d(0.9)(μm)=90% of the particles are below this particle size. Span=d(0.9)−d(0.1)/d(0.5)
Span gives a good indication of population homogeneity.

[3] = tested on: resistance arteries; assay: Ex-vivo insulin bioactivity, wire myograph; assay type: cell-based, Wistar rats; settings: pre-constriction with thromboxane mimetic [U44169]
Method: A pressure myograph which allowed luminal application of drug provided initial measures of sensitivity. In the pressure system, arteries mounted on opposing glass cannula (outer dimension 80 μm) were gradually pressurized from <5 mmHg to 40 mmHg over 15 mins and held for 15 mins more before starting the assay. Responses were measured using proprietary video analysis software (MyoView). […] The arteries were then exposed to increasing concentrations of insulin either directly into the bath (wire) or by gradual infusion directly into the lumen via a fetal microcannulae inserted to the tip of the glass mounting cannula, at a constant pressure (pressure). Following pre-constriction with thromboxane mimetic [U44169] the insulin-mediated vasorelaxation profile is typical for insulin and exerts its effect mainly via the activation of nitric oxide synthase and the subsequent release of endothelial nitric oxide.

[4] = above 80% RH
Method: The uptake of water by bioactive molecule coated particles produced by the present co-precipitation process and of the core material precipitated alone under a controlled humidified environment was carried out by Dynamic Vapor Sorption (DVS) using Dynamic Vapor Sorption 1000 (Surface Measurement Systems).
The Experimental set-up was as follows.
The DVS used a 2 full-cycle experimental Special Automatic Operation (SAO) protocol that included an initial drying stage at 0% Relative Humidity (RH). […] This was proceeded by an identical desorption cycle down to 0% RH. This cycle was repeated. The following criteria was used to control the DVS stage change: either the rate of change of the increase in mass i.e. dm/dt dropped to 0.002, or the maximum stage time was 2000 minutes.
Prior to introduction of the sample, the balance was tared and the instrument was allowed to equilibrate until a stable baseline was observed. The particles were then loaded and the initial weight recorded, followed by switching on the SAO. The experiment ran until the completion of the SAO.

[5] = tested on: resistance arteries; assay: Ex-vivo insulin bioactivity, pressure myograph; assay type: cell-based, Wistar rats; settings: mean of 3 (SD)
Method: Insulin bioactivity assays were carried out on resistance arteries ([…]) isolated from 12 week old male Wistar rats studied in heated (37° C.) and gassed (95% O2/5% CO2) physiological salt solution (PSS) to achieve a pH of 7.4. A pressure myograph which allowed luminal application of drug provided initial measures of sensitivity. In the pressure system, arteries mounted on opposing glass cannula (outer dimension 80 μm) were gradually pressurized from <5 mmHg to 40 mmHg over 15 mins and held for 15 mins more before starting the assay. Responses were measured using proprietary video analysis software (MyoView). The pressure myograph is able to detect the vasodilatory effect of insulin at very low concentrations (1×10^−10 M).

[6] = HPLC analysis of insulin after reconstitution; settings: retained in the same aqueous solution used for co-precipitation

Row | Zeta potential (sign) [1] | Zeta potential (mV) [1] [mV] | Span [2] | d(0.5)/microns [2] [microns] | Compound | insulin mediated vasorelaxation [3] | water uptake [4] | insulin mediated relaxation to noradrenaline pre-constriction (100=100% constriction) ([5]; Log M −9) | insulin mediated relaxation to noradrenaline pre-constriction (100=100% constriction) ([5]; Log M −10) | insulin mediated relaxation to noradrenaline pre-constriction (100=100% constriction) ([5]; Log M −11) | time to significant changes [6]
1 | negative | −19.6 | 1.32 | 21.810 | CC(C)C(N)C(=O)O (racemic) [D,L-valine] | no bioactivity |  |  |  |  | 
2 | negative | −49.7 | 1.72 | 58.370 | NCC(=O)O [Glycine, glycine] |  | start to take up appreciable amounts of water |  |  |  | 
3 | negative | −54.8 | 1.88 | 36.373 | NC(=O)CC[C@H](N)C(=O)O [L-glutamine] |  |  |  |  |  | 
4 |  |  |  |  | Commercial Insulin: USP bovine pancreas insulin control |  |  | 65 (23) % | 84 (7) % | 100 (0) % | less than 30 minutes
